Laboratory results as given in publication PMC10396955, “2-Oxabicyclo[2.1.1]hexanes as saturated bioisosteres of the ortho-substituted phenyl ring” (Nature Chemistry, 2023).
Values after ≈ are worked out from the molar mass of the structure shown. Like-named read-outs stand apart in the source and are kept apart here.

Columns and labels:
human liver microsomes = experiment: Metabolic stability in human liver microsomes; type: in vitro ADME; details: for metabolic stability (in words) / CIint, intrinsic clearance: human liver microsomes
Method: (§1) The data acquisition and system control was performed using Analyst 1.6.3 software from AB Sciex. Methods Microsomal incubations were carried out in 96-well plates in 5 aliquots of 30 μL each (one for each time point). […] In the control reactions the NADPH-cofactor system was substituted with phosphate buffer. […] Each reaction was performed in duplicates. Five time points over 40 minutes were analyzed. The reactions were stopped by adding 4 volumes of methanol containing internal standard to incubation aliquots, followed by protein sedimentation by centrifuging at 5500 rpm for 4 minutes. […]. Supernatants were analyzed using the HPLC system coupled with tandem mass spectrometer. […] In some cases, the last time point is excluded from the calculations to ensure acceptable logarithmic linearity of decay.

[1] = Metabolic stability in human liver microsomes; type: in vitro ADME; details: both sexes; for half-life at 2 µM: read-out: t1/2; for k el at 2 µM: elimination constant, read-out: kel (converted)
Method: as §1

physchem = type: physicochemical; details: for D (partition ratio), incubation 1 / D (partition ratio), incubation 2 / D (partition ratio), incubation 3: Table S2, n-octanol/PBS pH 7.4
Method: Determination of Distribution Coefficient (LogD, pH 7.4) […]
n-octanol – phosphate buffered saline (PBS), pH 7.4. Distribution coefficient (or LogD) is a […]
Phosphate buffered saline, tablet (Sigma-Aldrich, USA; Cat # P4417)
Acetic acid (Enamine, Ukraine.)
DMSO stock solutions of the test compounds 10mM
Gradient HPLC system (Shimadzu, Japan)
MTR22 Multi Mix Rotator (UNICO, USA)
Laboratory Centrifuge, Sigma 4-15C, Qiagen (SIGMA GmbH, Germany) […]
allowed to mix in a rotator for 1 h at 30 rpm. Phase separation was assured by centrifugation for […]
dilution. The samples (both phases) were analyzed using a HPLC system coupled with a tandem mass spectrometer. Mebendazole was used as a reference compound. […]
where: SO – peak area of the analyte in octanol phase
S P – peak area of the analyte in PBS buffer do – dilution coefficient for octanol phase dp – dilution coefficient for aqueous phase

[2] = Kinetic solubility in phosphate-buffered saline, pH 7.4; type: physicochemical; details: phosphate-buffered saline, 25 °C, pH 7.4, aqueous buffer, kinetic from dmso stock
Method: Analysis of Aqueous Solubility […]
compound (Ondansetron) were assessed for kinetic solubility in phosphate-buffered saline, pH […]
Phosphate buffered saline, pH 7.4 (Sigma-Aldrich, USA; Cat #P3813) […]
MultiScreen HTS 96 Well Filter Plates (Millipore, Ireland; Cat # MSGVS2210) […]
Matrix Multichannel Electronic Pipette 2-125 µL, 5-250 µL, 15-1250 µL (Thermo Scientific, […]
Vacuum pump (Millipore, USA; Model # XX5500000)
The measurements were performed using SpectraMax Plus reader in UV-Vis mode. Acquisition and analysis of the data were performed using SoftMax Pro v.5.4 (Molecular Devices) and Excel […]
Kinetic solubility assay was performed according to the Enamine’s aqueous solubility SOP.
Briefly, using a 20 mM stock solution of the compound in 100% DMSO dilutions were prepared to a theoretical concentration of 400 μM in duplicates in phosphate-buffered saline pH 7.4 […]
for two hours and then filtered through HTS filter plates using a vacuum manifold. The filtrates of test compounds were diluted 2-fold with acetonitrile with 2% DMSO before measuring.
In parallel, compound dilutions in acetonitrile/PBS (1:1) were prepared to theoretical […]
DMSO to generate calibration curves. Ondansetron was used as reference compound to control proper assay performance. 200 μl of each sample was transferred to 96-well plate and measured in 200-550 nm range with 5 nm step.
The concentrations of compounds in PBS filtrate are calculated using a dedicated Microsoft Excel calculation script. Proper absorbance wavelengths for calculations are selected for each compound manually based on absorbance maximums (absolute absorbance unit values for the minimum and maximum concentration points within 0 – 3 OD range). Each of the final datasets is additionally visually evaluated by the operator and goodness of fit (R2) is calculated for each calibration curve. The effective range of this assay is approximately 2-400 μM and the […]

[3] = human, liver microsomes, pH 7.4, human liver microsomes, 2 μM, 37 °C, with NADPH, 7 min
[4] = human, liver microsomes, pH 7.4, human liver microsomes, 2 μM, 37 °C, with NADPH, 15 min
[5] = human, liver microsomes, pH 7.4, human liver microsomes, 2 μM, 37 °C, with NADPH, read-out: % Remaining, Mean of 2
[6] = pH 7.4, human liver microsomes, no NADPH cofactor, ** instability partially or completely not determined by CYP450 activity, read-out: % Remaining without cofactor, Mean of 2
[7] = pH 7.4, LogD, pH 7.4, incubation 1
[8] = pH 7.4, LogD, pH 7.4, incubation 2
[9] = pH 7.4, LogD, pH 7.4, incubation 3
[10] = Table S1, incubation 1, read-out: PBS solubility, pH 7.4, Incubation 1
[11] = Table S1, incubation 2, read-out: PBS solubility, pH 7.4, Incubation 2
[12] = Table S1, mean of 2 incubations, 2 h, 2% DMSO, effective range approx. 2-400 μM, read-out: PBS solubility, pH 7.4, Mean
[13] = experimental kinetic solubility in phosphate-buffered saline at pH 7.4, Fig. 3, read-out: Solubility
[14] = human, liver microsomes, pH 7.4, human liver microsomes, 0.42 mg protein per ml, Table S3, * approximate due to high stability, read-out: Clint
[15] = human, liver microsomes, pH 7.4, human liver microsomes, * approximate due to high stability
[16] = pH 7.4, human liver microsomes, * approximate due to high stability

Structure (SMILES)	metabolic stability (in words) (human liver microsomes)	remaining at […], 2 µM [1, 3] [%]	remaining at […], 2 µM [1, 4] [%]	remaining at 25 min, 2 µM [1, 5] [%]	remaining at 40 min, 2 µM [1, 5] [%]	remaining at 40 min, 2 µM [1, 6] [%]	D (partition ratio), incubation 1 (physchem)	D (partition ratio), incubation 2 (physchem)	D (partition ratio), incubation 3 (physchem)	logD at 1 h (physchem; pH 7.4, LogD, pH 7.4 (mean))	logD at 1 h (physchem; [7])	logD at 1 h (physchem; [8])	logD at 1 h (physchem; [9])	logD at 1 h (physchem; pH 7.4, logD (7.4))	solubility at 2 h [2, 10] [µM]	solubility at 2 h [2, 11] [µM]	solubility at 2 h [2, 12] [µM]	solubility at 2 h [2, 13] [µM]	microsomal CLint at 2 µM [1, 14] [µL/min/mg]	half-life at 2 µM [1, 15] [min]	also measured
O=C(O)[C@@H]1[C@@H]2CC[C@@]1(C(=O)Nc1ccc(S(=O)(=O)Nc3nccs3)cc1)C2 (relative stereo) [Compound 32]	metabolically stable	97	97	99	100	89	8.13E-02	3.23E-02	2.75E-02	< 1	< 1	< 1	< 1	< 1	151 (≈ 61.5 µg/mL)	164 (≈ 66.8 µg/mL)	158 (≈ 64.4 µg/mL)	101 (≈ 41.2 µg/mL)	–	–	–
O=C(NC1CCN(CCCCC2(C(=O)NCC(F)(F)F)c3ccccc3-c3ccccc32)CC1)[C@@H]1[C@@H]2CC[C@@]1(c1ccc(C(F)(F)F)cc1)C2 (relative stereo) [Compound 34]	–	76	41	21	8	91	3.53E+08	3.40E+06	1.71E+05	> 4.5	> 4.5	> 4.5	> 4.5	> 4.5	2 (≈ 1.4 µg/mL)	2 (≈ 1.4 µg/mL)	2 (≈ 1.4 µg/mL)	2 ± 0.2 (≈ 1.4 µg/mL)	157	10.6	CIint, intrinsic clearance (human liver microsomes): 157 µL/min/mg; k el at 2 µM [1, 16]: 0.00108 s⁻¹
O=C(NC1CCN(CCCCC2(C(=O)NCC(F)(F)F)c3ccccc3-c3ccccc32)CC1)[C@@H]1[C@H]2C[C@]1(c1ccc(C(F)(F)F)cc1)CO2 (relative stereo) [Compound 35]	–	102	77	36	29	84	1.46E+05	1.62E+05	8.88E+04	> 4.5	> 4.5	> 4.5	> 4.5	> 4.5	2 (≈ 1.4 µg/mL)	4 (≈ 2.8 µg/mL)	3 (≈ 2.1 µg/mL)	–	87	19.2	CIint, intrinsic clearance (human liver microsomes): 87 µL/min/mg; k el at 2 µM [1, 16]: 0.0006 s⁻¹
O=C(O)C1C2CC1(C(=O)Nc1ccc(S(=O)(=O)Nc3nccs3)cc1)CO2 (stereo not drawn) [Compound 33]	metabolically stable	111	111	109	106	92	2.39E-01	1.93E-02	5.50E-01	-0.87	-0.62	-1.72	-0.26	< 1	100 (≈ 40.9 µg/mL)	102 (≈ 41.8 µg/mL)	101 (≈ 41.4 µg/mL)	158 (≈ 64.7 µg/mL)	~1	~1190	microsomal CLint at 2 µM ([1]; human, liver microsomes, pH 7.4, human liver microsomes, Fig. 3, read-out: CIint, intrinsic clearance): 1 µL/min/mg
O=C(O)Cc1ccccc1Nc1c(Cl)cccc1Cl [Diclofenac, reference compound]	–	–	–	–	–	–	–	–	–	–	–	–	–	–	–	–	–	–	–	–	kel (human liver microsomes; both, human, 2 µM, pH 7.4): 0.115 min⁻¹; Clint (human liver microsomes; both, human, microsomes, 2 µM, pH 7.4): 276 µL/min/mg; % Remaining, Mean of 2 (human liver microsomes; both, human, microsomes, 25 min, 2 µM, pH 7.4): 8%
COC(=O)Nc1nc2ccc(C(=O)c3ccccc3)cc2[nH]1 [Mebendazole, reference compound]	–	–	–	–	–	–	1.27E+03	1.32E+03	1.33E+03	3.12	3.1	3.12	3.12	–	–	–	–	–	–	–	–
